Source: patent US11634434B2, “Bifunctional alpha-synuclein binding agents and uses thereof” (University of Saskatchewan, priority 2016, dated 2023)
Values joined by “and” are separate entries in the source; they are usually repeats but may differ in a detail not shown here. Identical values can stand only once. Like-named read-outs stand apart in the source and are kept apart here.

What was measured:
[1] = target: T1, alpha-synuclein (Homo sapiens, UniProt P37840); experiment: Isothermal titration calorimetry (ITC) binding to alpha-synuclein; settings: for # Binding sites: Table 2; for Bind to N and C?: binds to both N and C portions of alpha-synuclein; on Bind to N and C?: key: Y indicates yes; N indicates no
Protocol: (§1) Nanopore analysis and isothermal titration calorimetry were performed as described previously.^21,54

[2] = test system: yeast strain 2AS (2 copies of AS-GFP gene); format: cell-based
Protocol: (§2) Third, the drugs were assayed in a yeast model of Parkinson's Disease, which expresses an alpha-synuclein-Green Fluorescent Protein (AS-GFP) construct under the control of a galactose promoter.
Construction of the 1AS and 2AS strains has been described in detail previously.^55 Strains were grown in YPD supplemented with 30 μg/ml of all amino acids. The OD600 was adjusted to 0.05 in drop-out media (no uracil) at 30° C. Drugs were dissolved in methanol at 0.01 micromolar, 0.1 micromolar, 1 micromolar or 10 micromolar followed by addition of 100 micromolar or 5 mM galactose to a final volume of 10 mL.

[3] = test system: alpha-synuclein-GFP aggregation in yeast strain 2AS; format: cell-based; settings: 1 micromolar compound, 5 mM galactose; for AS-GFP foci / fluorescence pattern: up to 12 hours
Protocol: as §2
For Analysis of AS-GFP distribution, the 2AS strain was grown overnight in drop-out media. After normalization of culture density, galactose was administered to a final concentration of 5 mM. […] For the yeast recovery assay, yeast cells were obtained after 6 hours induction with 5 mM galactose concentration, washed in galactose free media and the compounds were added to a final concentration of 1 micromolar in a 2 mL reaction mixture. The culture was incubated at 30° C. for 3, 6, and 9 hour intervals. Images were obtained at each interval using an Olympus Infinity (BX51) fluorescence microscope at 100× magnification.

[4] = target: T1, alpha-synuclein; experiment: Nanopore analysis of alpha-synuclein (blockade current histograms); format: binding; settings: for nanopore profile of additional bifunctional molecules: FIGS. 9A-9D; for nanopore profile (bumping peak / binding): 1 micromolar alpha-synuclein, 20 micromolar compound, FIG. 3; for binding to alpha-synuclein: method not stated for these compounds
Protocol: The bifunctional molecules were characterized by four different methods. […] If the compound causes a more compact conformation, then the alpha-synuclein can no longer translocate and it simply bumps into the pore giving rise to a very small change in the blockade current.^44-46
as §1

[5] = test system: male Sprague-Dawley rats with increased alpha-synuclein expression; experiment: Forced swim test in ASIA-treated rats; format: in vivo, rat; settings: ASIA + compound 3 mg/kg
Protocol: male Sprague-Dawley rats are used (200 g-300 g). All animals are handled ethically following approved protocols. For the first round of studies, rats are divided into five treatment groups:
Rats are subjected to 7-day chronic injection of 3 mg/kg of each test compound, and a forced swim test is conducted after the seventh day to measure motor deficits. […] For a second round of studies, rats are divided into four treatment groups, and the same experiments were repeated:
The forced swim test is carried out by immersing the rat in water that is sufficiently deep to force the rat to swim. The forced swim test is scored based on the following criteria:
Vigor and success are measures of motor function. Immobility is thought to be a measure of depression.^59 Based on videos of the forced swim test, the amount of time that each rat was motionless was calculated as a form of scoring depression for each treatment. Statistical analysis was carried out using an ordinary one-way ANOVA and Tukey multiple comparisons test.

[6] = test system: WT yeast; experiment: Yeast growth curves (OD600), toxicity of drugs on WT yeast; format: cell-based; design: effect on growth of WT yeast: dose or concentration left out as unconfirmed; settings: for effect on growth of WT yeast: no alpha-synuclein
[7] = ITC in 1.0M KCl, bifunctional molecules (or monomers) per alpha-synuclein molecule, best fit
[8] = 1 micromolar compound + 5 mM galactose
[9] = 1 micromolar compound + 100 micromolar galactose

| Structure (SMILES) | # Binding sites [1] | Ka ([1]; Table 2, ITC) | Bind to N and C? [1] | nanopore profile of additional bifunctional molecules [4] | also measured |
| --- | --- | --- | --- | --- | --- |
| Cn1c(=O)c2c(ncn2CCCCCCNC2CCc3ccccc32)n(C)c1=O (stereo not shown) [Compound C7-6-I] | 1 | 2e+06 M⁻¹ | Y |  | Ka ([1]; ITC in 1.0M KCl): 2.6e+06 M⁻¹; # of Binding sites [1, 7]: 1; growth of 2AS yeast [2, 8]: moderate growth; lag before growth rescue / reaching the growth plateau [2, 8]: about 6 hours; AS-GFP foci / fluorescence pattern [3]: more diffuse area of fluorescence |
| Cn1c(=O)c2c(ncn2CCCCN2CCCC2c2cccnc2)n(C)c1=O (racemic) [Compound C7-4-N] | 1 | 3e+06 M⁻¹ | Y | bumping peaks, but have a shifted translocation peak visible as well |  |
| Cn1c(=O)c2c(ncn2CCn2cnc3c2c(=O)n(C)c(=O)n3C)n(C)c1=O [Compound C7-2-C7] | 1 | 30000 M⁻¹ | Y | significant bumping peaks |  |
| NC1CCc2ccccc21 (racemic) [(R,S)-1-aminoindan, reference compound] |  |  |  |  | growth of 2AS yeast [2, 9]: rate of growth which is similar to that shown by the WT strain; formation of foci delayed until (time after induction) [3]: 9 h; immobility in forced swim test [5]: partially reversed; success in forced swim test ([5]; last three minutes of the test): some improvement; vigor in forced swim test ([5]; last three minutes of the test): some improvement |
| CN(CCCCCCCc1nc2c(c(=O)n(C)c(=O)n2C)n1C)C(=N)NC(=N)N.Cl [Compound C8-7-M] | 2 | 640000 M⁻¹ | Y | significant bumping peaks |  |
| Cn1c(=O)c2c(nc(CCCCCCc3nc4c(c(=O)n(C)c(=O)n4C)n3C)n2C)n(C)c1=O [Compound C8-6-C8] | 0.25 | 2e+08 M⁻¹ | Y |  | nanopore profile (bumping peak / binding) [4]: predominantly bumping peaks; increase of Ka for a 10-fold decrease in ionic strength ([1]; 100 mM KCl versus 1.0M KCl): does not increase; # of Binding sites ([1]; ITC in 100 mM KCl): 0.25; Ka ([1]; ITC in 100 mM KCl): 1.8e+08 M⁻¹; Ka ([1]; ITC in 1.0M KCl): 2e+08 M⁻¹ and 280000 M⁻¹; # of Binding sites [1, 7]: 0.25; toxicity on WT yeast ([6]; 100 micromolar compound): toxic; lag before growth rescue / reaching the growth plateau [2, 8]: about 6 hours |
| CC(N)Cc1ccccc1 (stereo not shown) [amphetamine] |  |  |  |  | effect on growth of WT yeast [6]: no evidence of toxicity; growth of 2AS yeast [2, 9]: significant reduction of growth; time at which complete filling of the cell with AS-GFP occurs [3]: 6 h; AS-GFP foci / fluorescence pattern [3]: larger foci appear at earlier times |
| CN1CCC[C@H]1c1cccnc1 (racemic) [(R,S)-nicotine, reference compound] |  |  |  |  | growth of 2AS yeast [2, 9]: rate of growth which is similar to that shown by the WT strain; formation of foci delayed until (time after induction) [3]: 9 h |
| Cn1c(=O)c2c(ncn2CCCCCCn2cnc3c2c(=O)n(C)c(=O)n3C)n(C)c1=O [Compound C7-6-C7] | 2 | 700000 M⁻¹ | Y |  | nanopore profile (bumping peak / binding) [4]: predominantly bumping peaks; Ka ([1]; ITC in 1.0M KCl): 720000 M⁻¹; # of Binding sites [1, 7]: 2; growth of 2AS yeast [2, 8]: marginal growth rescue |
| Cn1c(=O)c2c(ncn2CCCCCCCCn2cnc3c2c(=O)n(C)c(=O)n3C)n(C)c1=O [Compound C7-8-C7] | 0.5 | 400000 M⁻¹ | Y | significant bumping peaks |  |
| Cn1c(=O)c2c(nc(CCCCCCCCN3CCCC3c3cccnc3)n2C)n(C)c1=O (racemic) [Compound C8-8-N] |  |  |  |  | binding to alpha-synuclein [4]: bind to alpha-synuclein |
| Cn1c(=O)c2c(ncn2CCN2CCCC2c2cccnc2)n(C)c1=O (racemic) [Compound C7-2-N] | 1 | 50000 M⁻¹ | Y | bumping peaks, but have a shifted translocation peak visible as well |  |
| Cn1c(=O)c2c(nc(CCc3nc4c(c(=O)n(C)c(=O)n4C)n3C)n2C)n(C)c1=O [Compound C8-2-C8] | 1 | 900000 M⁻¹ | Y | significant bumping peaks |  |
| CN1CCCC1c1cccnc1 (stereo not shown) [Nicotine, nicotine, reference compound] | 1 |  | Y |  | Kd ([1]; Ka): 1000 nM |
| Cn1c(=O)c2c(ncn2CCCCCCCCNC2CCc3ccccc32)n(C)c1=O (stereo not shown) [Compound C7-8-I] | 0.5 | 2e+07 M⁻¹ | Y | bumping peaks, but have a shifted translocation peak visible as well |  |
| Cn1c(=O)c2c(ncn2CCCCCCCCN2CCCC2c2cccnc2)n(C)c1=O (racemic) [Compound C7-8-N] | 1 | 4e+06 M⁻¹ | Y | bumping peaks, but have a shifted translocation peak visible as well |  |
| C[n+]1ccc(-c2cc[n+](C)cc2)cc1 [paraquat, reference compound] |  |  |  |  | effect on growth of WT yeast [6]: no evidence of toxicity; growth of 2AS yeast [2, 9]: significant reduction of growth |
| Cn1c(=O)c2c(ncn2CCCCNC2CCc3ccccc32)n(C)c1=O (stereo not shown) [Compound C7-4-I] | 1 | 5e+06 M⁻¹ | Y | bumping peaks, but have a shifted translocation peak visible as well |  |
| C=C(C)[C@H]1Cc2c(ccc3c2O[C@@H]2COc4cc(OC)c(OC)cc4[C@@H]2C3=O)O1 [rotenone, reference compound] |  |  |  |  | growth of 2AS yeast [2, 9]: significant reduction of growth |
| N[C@@H]1CCc2ccccc21 [R-Aminoindan, reference compound] | 1 | 1e+06 M⁻¹ | Y |  | Ka ([1]; ITC in 1.0M KCl): 1e+06 M⁻¹; # of Binding sites [1, 7]: 1 |
| CN1CCC[C@H]1c1cccnc1 [S-Nicotine, reference compound] |  |  |  |  | Ka ([1]; ITC in 1.0M KCl): 400000 M⁻¹; # of Binding sites [1, 7]: 1 |
| Cn1c(=O)c2c(ncn2CCCCCCN2CCCC2c2cccnc2)n(C)c1=O (racemic) [Compound C7-6-N] | 1 | 5e+06 M⁻¹ | Y |  | Ka ([1]; ITC in 1.0M KCl): 5.1e+06 M⁻¹; # of Binding sites [1, 7]: 1; lag before growth rescue / reaching the growth plateau [2, 8]: about 6 hours |
| Cn1c(=O)c2c(ncn2CCCCn2cnc3c2c(=O)n(C)c(=O)n3C)n(C)c1=O [Compound C7-4-C7] | 0.5 | 1e+07 M⁻¹ | Y | significant bumping peaks |  |
| NC1CCc2c(F)cccc21 (stereo not shown) [4-Fluoro-indan-1-yl-amine, reference compound] | 0.5 |  | Y |  | Kd ([1]; Table 2, ITC, read-out: Ka (converted)): 333 nM |
| Cn1c(=O)c2c(nc(CCCCCCCCNC3CCc4ccccc43)n2C)n(C)c1=O (racemic) [Compound C8-8-I] |  |  |  |  | binding to alpha-synuclein [4]: bind to alpha-synuclein |
| CN1CCC[C@@H]1c1cccnc1 [R-Nicotine, reference compound] |  |  |  |  | # of Binding sites [1, 7]: 1; Kd ([1]; Ka): 714 nM |
| N[C@H]1CCc2ccccc21 [S-Aminoindan, reference compound] | 1 | 3e+06 M⁻¹ | Y |  | Ka ([1]; ITC in 1.0M KCl): 3.1e+06 M⁻¹; # of Binding sites [1, 7]: 1 |
| Cn1c(=O)c2c(ncn2CCNC2CCc3ccccc32)n(C)c1=O (stereo not shown) [Compound C7-2-I] | 1 | 90000 M⁻¹ | Y | significant bumping peaks |  |
